Data on five compounds can be found in patent US7785850B2, “Heterologus expression of trypanothione reductase from Leishmania donovani in a prokaryotic system” (priority 2004, dated 2010).

Bounds are passed on as bounds.

Experiment [1] concerns the target T1, recombinant Leishmania donovani Trypanothione Reductase (Leishmania donovani, UniProt P39050, S2A).
T1 construct: GST (pET-41a vector fusion) (N, cleaved yes); made in house; host or cells: E. coli BL21(DE3), pET41a (clone LddTRpET41aDE3)
In words: Enzyme assay, kinetics and substrate specificity of recombinant purified trypanothione reductase. In kind it is biochemical. The conditions noted are these: for Km / Vmax: TS2 varied at 50 μM NADPH, NADPH varied at 50 μM TS2. The procedure:
Trypanothione reductase activity was routinely assayed spectrophotometrically at 340 nm, as previously described (25). The reaction mixture contained 20-100 mM HEPES pH 7.2-7.8, 20 μM-1 mM EDTA, 80-200 μM NADPH and 15-50 μM TS2. One unit of enzyme activity is defined as that amount of enzyme required to convert 1 μmol of NADPH to NADP per minute at 25° C. Protein was assayed according to the method of Bradford (1976) as supplied by Bangalore Genei with Bovine serum albumin as a standard. For comparative kinetic studies, assay was performed at 50 μM NADPH and at 5-100 μM concentrations of TS2 and at 50 μM TS2 and at 10-200 μM concentrations of NADPH.
Trypanothione reductase activity was routinely assayed spectrophotometrically at 340 nm, as previously described (25). The reaction mixture contained 100 mM HEPES pH 7.8, 20 μM EDTA, 80 μM NADPH and 50 μM TS2. The reaction was allowed to proceed for 5 min. and change in O.D. was monitored every after 30 sec. One unit of enzyme activity is defined, as that amount of enzyme required to convert 1 μmol of NADPH to NADP per minute at 25° C. The purified recombinant enzyme has a specific activity of 12.5 U/mg. protein. Purification procedure leads to 20 fold purification from the soluble content of E. coli lysate. The total yield was 16 mg/lit (FIG. 7 describes the fold purification of Recombinant Leishmania donovani Trypanothione Reductase). […] For comparative kinetic studies, assay was performed at 50 μM NADPH and varying concentration of TS2 (20, 40, 60, 80 & 100) and at 50 μM TS2 and varying concentration of NADPH (20, 40, 60, 80, 100 & 150).

Experiment [2] concerns the target T2, recombinant Leishmania donovani Trypanothione Reductase (LDdTR) (Leishmania donovani, UniProt P39050, S2A).
T2 construct: GST (pET-41a vector fusion) (N, cleaved yes); made in house; host or cells: E. coli BL21(DE3), pET41a (clone LddTRpET41aDE3)
Kind of experiment: biochemical.
Protocol: Trypanothione reductase activity was routinely assayed spectrophotometrically at 340 nm, as previously described (25). The reaction mixture contained 100 mM HEPES pH 7.8, 20 μM EDTA, 80 μM NADPH and 50 μM TS2. The reaction was allowed to proceed for 5 min. and change in O.D. was monitored every after 30 sec. One unit of enzyme activity is defined, as that amount of enzyme required to convert 1 μmol of NADPH to NADP per minute at 25° C. […] For comparative kinetic studies, assay was performed at 50 μM NADPH and varying concentration of TS2 (20, 40, 60, 80 & 100) and at 50 μM TS2 and varying concentration of NADPH (20, 40, 60, 80, 100 & 150).

Usually Km stands for the substrate concentration at which the rate is half of its maximum. Take `NC(=O)C1=CN([C@@H]2O[C@H](COP(=O)(O)OP(=O)(O)OC[C@H]3O[C@@H](n4cnc5c(N)ncnc54)[C@H](OP(=O)(O)O)[C@@H]3O)[C@@H](O)[C@H]2O)C=CC1` [NADPH, Nicotinidine adenine dinucleotide phosphate]: in experiment [1], the Km came out at 20 µM and the Vmax is given as 125 μM/ml/min.
As for “Oxidised Glutathione [oxidized glutathione]”, the “Substrate specificity (reduction catalyzed by purified protein)” value in experiment [1] is listed as “did not catalyze reduction”.
With `N[C@@H](CCC(=O)N[C@H]1CSSC[C@H](NC(=O)CC[C@H](N)C(=O)O)C(=O)NCC(=O)NCCCNCCCCNC(=O)CNC1=O)C(=O)O` [TS2, Oxidized Trypanothione], in experiment [1], the “Substrate specificity (reduction catalyzed by purified protein)” value is “specifically catalyzed reduction”, the Michaelis constant (Km) was 50 µM and the Vmax was 200 μM/ml/min.
On to `O.O.O.O=C([O-])[C@H]([O-])[C@@H]([O-])C(=O)[O-].O=C([O-])[C@H]([O-])[C@@H]([O-])C(=O)[O-].[K+].[K+].[Sb+3].[Sb+3]` [SbIII, Potassium antimony tartrate], for which, in experiment [2] (studied at 50 and 100 μM concentration), the “Effect on TR activity (in words)” value is given as “profound effect on TR activity in comparison to SAG”.
By inhibition is commonly meant how much of the control response was suppressed. `Nc1nc(N)nc(Nc2ccc([As]=O)cc2)n1` (centres unmarked) [Melarsen Oxide, Melarsen oxide]: the inhibition at 50 µM in experiment [2] (read-out: Inhibition of TR) is over 95%.
